Experimental findings from doi:10.1101/2024.12.03.626577v1 (biorxiv, 2024) are described below.

One test deals with T1, TRIM21^PRY-SPRY (287-465aa) (Homo sapiens, UniProt P19474). As to the kind of experiment: SPR.
T1 sequence (P19474 287-465): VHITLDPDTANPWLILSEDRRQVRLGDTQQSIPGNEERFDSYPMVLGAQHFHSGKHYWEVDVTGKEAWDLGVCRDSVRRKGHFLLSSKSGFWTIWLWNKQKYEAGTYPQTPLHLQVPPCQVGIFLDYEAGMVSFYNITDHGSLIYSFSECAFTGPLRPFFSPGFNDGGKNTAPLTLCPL
Conditions: not given
The test is classed as binding.
`COc1cnccc1-c1ccc(C(=O)N(C)CC2CCCCC2)c(S(C)(=O)=O)c1` [2d, Compound 2d] displayed a Kd of 1570 nM.

`CSc1ccccc1-c1ccc(C(=O)N(C)CC2CCOC2)c(S(C)(=O)=O)c1` (centres unmarked) [1f, Compound 1f] returned a Kd of 350 nM.

Turning to `CSc1ccccc1-c1ccc(C(=O)N(C)Cc2cc[nH]c(=O)c2)c(S(C)(=O)=O)c1` [1g, Compound 1g], the Kd was found to be 11 nM.

`CSc1ccccc1-c1ccc(C(=O)N(C)CC2CCCCC2)c(S(C)(=O)=O)c1` [1a, Compound 1a]: the affinity, expressed as Kd, was 123 nM.

In turn, `Cc1ccccc1-c1ccc(C(=O)N(C)CC2CCCCC2)c(S(C)(=O)=O)c1` [2c, Compound 2c] registered a Kd of 610 nM.

On to `CSc1ccccc1-c1ccc(C(=O)N(C)CC2CCCCC2(F)F)c(S(C)(=O)=O)c1` (centres unmarked) [2a, Compound 2a], for which the Kd was 234 nM.

The molecule `CSc1ccccc1-c1ccc(C(=O)N(C)Cc2cc[nH]c2)c(S(C)(=O)=O)c1` [1c, Compound 1c] came in with a Kd of 17 nM.

With `CN(CC1CCCCC1)C(=O)c1ccc(-c2ccccc2F)cc1S(C)(=O)=O` [2b, Compound 2b], the Kd was determined as 2150 nM.

As to `CSc1ccccc1-c1ccc(C(=O)N(C)Cc2ccon2)c(S(C)(=O)=O)c1` [1d, Compound 1d], binding was put at a Kd of 171 nM.

`CSc1ccccc1-c1ccc(C(=O)N(C)CC2CCOCC2)c(S(C)(=O)=O)c1` [1b, Compound 1b]: binding was put at a Kd of 29 nM.

`CCc1ccccc1CN(C)C(=O)c1ccc(-c2ccccc2SC)cc1S(C)(=O)=O` [1e, Compound 1e] had a Kd of 581 nM.

The target of a further test is T1, TRIM21^PRY-SPRY (287-465aa). As to the kind of experiment: SPR.
Conditions: not given
The test is classed as binding. This is another data set of the same source.
`CSc1ccccc1-c1ccc(C(=O)N(C)CC2(F)CCCCC2)c(S(C)(=O)=O)c1` [compound 1, Compound 1] displayed a Kd of 193 nM.

Another test relates to PANC-1. As to the kind of experiment: cells. As to conditions: Homo sapiens, PANC-1, 72 h, read-out: PANC-1 IC50 (µM).
Consider `Cc1ccccc1-c1ccc(C(=O)N(C)CC2CCCCC2)c(S(C)(=O)=O)c1` [2c], for which the IC50 was determined as 1.62 µM.

For the molecule `CSc1cc(F)ccc1-c1ccc(C(=O)N(C)CC2CCCCC2)c(S(C)(=O)=O)c1` [2e], the IC50 amounted to 0.094 µM.

Take `CSc1ccccc1-c1ccc(C(=O)N(C)CC2CCCCC2(F)F)c(S(C)(=O)=O)c1` (centres unmarked) [2a, Compound 2a]: the IC50 was determined as 0.329 µM.

As for `CN(CC1CCCCC1)C(=O)c1ccc(-c2ccccc2F)cc1S(C)(=O)=O` [2b, Compound 2b], the IC50 was 5.14 µM.

As for `COc1cnccc1-c1ccc(C(=O)N(C)CC2CCCCC2)c(S(C)(=O)=O)c1` [2d], the IC50 is 0.791 µM.

One may read the Kd as a measure of binding affinity in units of concentration. Higher therefore signals lower affinity. For orientation: IC50 means the concentration that gives 50% inhibition.
